20 compounds from US9926304B2, “1-(arylmethyl)quinazoline-2,4(1H,3H)-diones as PARP inhibitors and the use thereof” (Impact Therapeutics, Inc., priority 2011, dated 2018) can be followed below.

Assay [1] deals with Human breast cancer cell line T47D. As to the kind of experiment: Cell based caspase-3 activity assay: potentiation of MMS induced apoptosis. Conditions: Homo sapiens, T47D, 24 h, T47D cells, 11.1 μg/ml MMS, 24 hours, intracellular caspase-3 activity; read-out: EC50 (nM), potentiation of the apoptosis inducing activity of MMS. The procedure, abridged: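 T47D cells were exposed for 24 h to compound plus a minimally apoptotic MMS dose (medium containing 11.1 μg/ml MMS). Lysates were incubated 3 h at 37 °C with (Ac-DEVD)2-R110 caspase-3 substrate (20 μM in added buffer) and read at ex 496/em 520 nm. EC50 came from a sigmoidal fit of RFU versus log concentration.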

Assay [2] has as its system BRCA-2 deficient CAPAN-1 human pancreatic cancer cells. Nature of the assay: MTT based cell viability assay: growth inhibition of BRCA-2 deficient CAPAN-1 cells. Conditions: 240 h, compound alone, 10 day assay. The text has this: Determination of the cell growth inhibiting activity of 1-(3-(4-(pyrimidin-2-yl)piperazine-1-carbonyl)benzyl)quinazoline-2,4(1H,3H)-dione and analogs on BRCA-2 deficient CAPAN-1 pancreatic duck cancer cells using a MTT based cell viability assay
BRCA-deficient cancer cells are sensitive to PARP inhibition. In the presence of PARP inhibitors, BRCA-deficient cancer cells could not grow and eventually will lead to death of cells. BRCA-2 deficient CAPAN-1 human pancreatic cancer cells were used to test the growth inhibiting activity of substituted 1-(arylmethyl)quinazoline-2,4(1H,3H)-diones. Briefly, CAPAN-1 cells are grown and maintained in IMEM medium supplemented with 20% FBS. The assay takes 10 days to finish. On day 1, 6000 CAPAN-1 cells are seeded to each well of a 96-well plate. The cells are incubated at 37° C. in a cell culture incubator overnight. In the next day, serial dilutions of compounds to be tested and reference compound (AZD2281) were prepared with a 1:3 and 1:10 fashion in DMSO. Ten-fold compound solutions were made by mixing 10 μl DMSO serial dilution solutions with 90 μl fresh growth medium. The cell culture medium was removed and 180 μl fresh media with FBS and 20 μl of compound solutions were added to each well. The final concentration of DMSO was 1%. Cells were then returned to the CO2 cell culture incubator and incubated at 37° C. for two days (day 3 and day 4). On day 5, the same procedure as what was done on day 2 was repeated. Cell culture medium was removed and fresh medium containing serial dilutions of compounds or reference compounds were added. Cells were returned to the CO2 cell culture incubator and incubated for two more days. On day 8, same procedure was repeated again and fresh medium containing the testing compounds or reference compounds were added and incubated for an additional 2 days. On day 10, 20 μl of MTT reagent (5 mg/ml) was added to each well of the cell culture plate and incubated for 4 h. The cell culture media was removed and 100 μl DMSO was added to each well. The 96-well cell culture plates were shaked horizontally for 10 min and readed in a Varioskan Flash plate reader (Thermo Fisher Scientific) at 520 and 690 nm. The obtained 520 nm absorbance readings subtracting corresponding 690 nm reading were analyzed using a commercial graphic software (GraphPad Prism 5) and plotted against the Log scale of the compound concentrations.

Assay [3] deals with SW620 human colorectal cancer cells. Nature of the assay: MTT based cell viability assay: potentiation of the growth inhibiting activity of MMS. Particulars: Homo sapiens, SW-620, 120 h, read-out: IC50 (nM), potentiation of the growth inhibiting activity of MMS, SW620 cells, 1.7 μg/ml MMS, 5 days (120 hours), MTT.

As to `O=C(c1cccc(Cn2c(=O)[nH]c(=O)c3ccccc32)n1)N1CCN(c2ccccn2)CC1` [Example 70, 1-((2-(4-(Pyridin-2-yl)piperazine-1-carbonyl)pyridin-6-yl)methyl)quinazoline-2,4(1H,3H)-dione], in assay [1], the EC50 came out at 34 nM. Also, the results for the IC50 in assay [2] and in assay [3] were 339 nM and 136 nM, respectively.

Turning to `Cc1ccc2c(c1)c(=O)[nH]c(=O)n2Cc1cccc(C(=O)N2CCN(c3ncccn3)CC2)c1` [Example 81, 6-Methyl-1-(3-(4-(pyrimidin-2-yl)piperazine-1-carbonyl)benzyl)quinazoline-2,4(1H,3H)-dione], in assay [1], the concentration for a half-maximal effect (EC50) came to 63 nM. Also, the IC50 came to 421 nM in assay [2] and 99 nM in assay [3].

As for `Cc1ccc2c(c1)c(=O)[nH]c(=O)n2Cc1ccc(F)c(C(=O)N2CCN(c3ncccn3)CC2)c1` [Example 83, 1-(4-Fluoro-3-(4-(pyrimidin-2-yl)piperazine-1-carbonyl)benzyl)-6-methylquinazoline-2,4(1H,3H)-dione], in assay [1], the EC50 worked out at 21 nM. In addition, the IC50 in assay [2] is 746 nM; in assay [3] it was 72 nM.

On to `Cc1ccc2c(c1)c(=O)[nH]c(=O)n2Cc1ccc(F)c(C(=O)N2CCN(C(=O)C3CCCC3)CC2)c1` [Example 85, 1-(3-(4-(Cyclopentylcarbonyl)piperazine-1-carbonyl)-4-fluorobenzyl)-6-methylquinazoline-2,4(1H,3H)-dione], for which, in assay [1], the EC50 was determined as 7.6 nM. Moreover, the IC50 was found to be 291 nM in assay [2] and 25 nM in assay [3].

With `O=C(c1cccc(Cn2c(=O)[nH]c(=O)c3c(Cl)cccc32)c1)N1CCN(c2ncccn2)CC1` [Example 100, 5-Chloro-1-(3-(4-(pyrimidin-2-yl)piperazine-1-carbonyl)benzyl)quinazoline-2,4(1H,3H)-dione], in assay [1], the concentration for a half-maximal effect (EC50) was found to be 70 nM. Besides, the figures for the IC50 in assay [2] and in assay [3] were 312 nM and 202 nM, respectively.

Consider `O=C(c1cccc(Cn2c(=O)[nH]c(=O)c3c(Cl)cccc32)c1)N1CCN(C(=O)C2CCCC2)CC1` [Example 101, 5-Chloro-1-(3-(4-(cyclopentylcarbonyl)piperazine-1-carbonyl)benzyl)quinazoline-2,4(1H,3H)-dione], for which, in assay [1], the EC50 worked out at 20 nM. The IC50 in assay [2] amounted to 1050 nM; in assay [3], 117 nM.

For `O=C(c1cc(Cn2c(=O)[nH]c(=O)c3c(Cl)cccc32)ccc1F)N1CCN(c2ncccn2)CC1` [Example 103, 5-Chloro-1-(4-fluoro-3-(4-(pyrimidin-2-yl)piperazine-1-carbonyl)benzyl)quinazoline-2,4(1H,3H)-dione], the EC50 in assay [1] turned out to be 29 nM. In addition, the IC50 in assay [2] is 665 nM; in assay [3] it was 45 nM.

Turning to `O=C(c1cc(Cn2c(=O)[nH]c(=O)c3c(Cl)cccc32)ccc1F)N1CCN(C(=O)C2CCCC2)CC1` [Example 104, 5-Chloro-1-(3-(4-(cyclopentylcarbonyl)piperazine-1-carbonyl)-4-fluorobenzyl)quinazoline-2,4(1H,3H)-dione], the EC50 in assay [1] was 2.6 nM. Besides, the IC50 in assay [2] was 452 nM; in assay [3], 8.3 nM.

On to `O=C(c1cc(Cn2c(=O)[nH]c(=O)c3c(Cl)cccc32)ccc1F)N1CCN(C(=O)C2CCCCC2)CC1` [Example 105, 5-Chloro-1-(3-(4-(cyclohexylcarbonyl)piperazine-1-carbonyl)-4-fluorobenzyl)quinazoline-2,4(1H,3H)-dione], for which the 50% effective concentration (EC50) in assay [1] came to 14 nM. In addition, the IC50 in assay [2] stood at 97 nM; in assay [3], 7.9 nM.

With `O=C(c1cccs1)N1CCN(C(=O)c2cc(Cn3c(=O)[nH]c(=O)c4c(Cl)cccc43)ccc2F)CC1` [Example 107, 5-Chloro-1-(4-fluoro-3-(4-(thiophene-2-carbonyl)piperazine-1-carbonyl)benzyl)quinazoline-2,4(1H,3H)-dione], the EC50 in assay [1] worked out at 9.5 nM. The IC50 is 161 nM in assay [2] and 6.3 nM in assay [3].

Turning to `O=C(c1cccc(Cn2c(=O)[nH]c(=O)c3cc(Cl)ccc32)c1)N1CCN(c2ncccn2)CC1` [Example 111, 6-Chloro-1-(3-(4-(pyrimidin-2-yl)piperazine-1-carbonyl)benzyl)quinazoline-2,4(1H,3H)-dione], in assay [1], the EC50 turned out to be 1.7 nM. Further, the figures for the IC50 in assay [2] and in assay [3] were 77 nM and 27 nM, respectively.

Consider `O=C(c1cccc(Cn2c(=O)[nH]c(=O)c3cc(Cl)ccc32)c1)N1CCN(C(=O)C2CCCC2)CC1` [Example 112, 6-Chloro-1-(3-(4-(cyclopentylcarbonyl)piperazine-1-carbonyl)benzyl)quinazoline-2,4(1H,3H)-dione], for which the EC50 in assay [1] came out at 2.9 nM. The IC50 turned out to be 767 nM in assay [2] and 14 nM in assay [3].

Take `O=C(c1cccc(Cn2c(=O)[nH]c(=O)c3cc(Cl)ccc32)c1)N1CCN(C(=O)C2CCCCC2)CC1` [Example 113, 6-Chloro-1-(3-(4-(cyclohexylcarbonyl)piperazine-1-carbonyl)benzyl)quinazoline-2,4(1H,3H)-dione]: the EC50 in assay [1] turned out to be 17 nM. For the same compound, the IC50 in assay [2] amounted to 170 nM; in assay [3] it was 9.6 nM.

Turning to `O=C(c1cc(Cn2c(=O)[nH]c(=O)c3cc(Cl)ccc32)ccc1F)N1CCN(c2ncccn2)CC1` [Example 117, 6-Chloro-1-(4-fluoro-3-(4-(pyrimidin-2-yl)piperazine-1-carbonyl)benzyl)quinazoline-2,4(1H,3H)-dione], the concentration giving a half-maximal response (EC50) in assay [1] was determined as 5.8 nM. In addition, the IC50 in assay [2] was 39 nM; in assay [3], 5.1 nM.

In the case of `O=C(c1cc(Cn2c(=O)[nH]c(=O)c3cc(Cl)ccc32)ccc1F)N1CCN(C(=O)C2CCCC2)CC1` [Example 118, 6-Chloro-1-(3-(4-(cyclopentylcarbonyl)piperazine-1-carbonyl)-4-fluorobenzyl)quinazoline-2,4(1H,3H)-dione], the concentration for a half-maximal effect (EC50) in assay [1] came out at 3.1 nM. Also, the IC50 in assay [2] was 54 nM; in assay [3] it was 0.82 nM.

On to `O=C(c1cc(Cn2c(=O)[nH]c(=O)c3cc(Cl)ccc32)ccc1F)N1CCN(C(=O)C2CCCCC2)CC1` [Example 119, 6-Chloro-1-(3-(4-(cyclohexylcarbonyl)piperazine-1-carbonyl)-4-fluorobenzyl)quinazoline-2,4(1H,3H)-dione], for which the 50% effective concentration (EC50) in assay [1] came to 3 nM. The IC50 in assay [2] was determined as 56 nM; in assay [3], 0.72 nM.

As to `O=C(c1ccc(F)c(Cn2c(=O)[nH]c(=O)c3cc(Cl)ccc32)c1)N1CCN(c2ncccn2)CC1` [Example 123, 6-Chloro-1-(6-fluoro-3-(4-(pyrimidin-2-yl)piperazine-1-carbonyl)benzyl)quinazoline-2,4(1H,3H)-dione], the concentration for a half-maximal effect (EC50) in assay [1] amounted to 11 nM. The IC50 in assay [2] turned out to be 111 nM; in assay [3], 15 nM.

For the compound `O=C(c1ccc(F)c(Cn2c(=O)[nH]c(=O)c3cc(Cl)ccc32)c1)N1CCN(C(=O)C2CCCC2)CC1` [Example 124, 6-Chloro-1-(3-(4-(cyclopentylcarbonyl)piperazine-1-carbonyl)-6-fluorobenzyl)quinazoline-2,4(1H,3H)-dione], in assay [1], the EC50 turned out to be 3.8 nM. For the same compound, the IC50 in assay [2] amounted to 137 nM; in assay [3], 9.9 nM.

With `O=C(c1cccc(Cn2c(=O)[nH]c(=O)c3c(F)cccc32)c1)N1CCN(C(=O)C2CCCC2)CC1` [Example 128, 1-(3-(4-(Cyclopentylcarbonyl)piperazine-1-carbonyl)benzyl)-5-fluoroquinazoline-2,4(1H,3H)-dione], the half-maximal effective concentration (EC50) in assay [1] was 12 nM. Also, the IC50 in assay [2] amounted to 442 nM; in assay [3], 37 nM.

Regarding `O=C(c1cc(Cn2c(=O)[nH]c(=O)c3c(F)cccc32)ccc1F)N1CCN(C(=O)C2CCCC2)CC1` [Example 133, 1-(3-(4-(Cyclopentylcarbonyl)piperazine-1-carbonyl)-4-fluorobenzyl)-5-fluoroquinazoline-2,4(1H,3H)-dione], the concentration giving a half-maximal response (EC50) in assay [1] worked out at 2.1 nM. The IC50 in assay [2] is 22 nM; in assay [3], 4.1 nM.
